Here are results for one compound from US20240390377A1, “COMPOSITION FOR THE PREVENTION OR TREATMENT OF NEURODEGENERATIVE OR MOTOR NEURON DISEASES COMPRISING HALOFUGINONE AS AN ACTIVE INGREDIENT” (CURAMYS CO., LTD., priority 2022, published 2024).

Test [1] has as its system G93A mutant SOD1 transgenic mice. The experiment in a line: Immunohistochemical analysis of lumbar spinal cord in ALS animal model. The class given is in vivo, mouse. As to the method:
As a control group, non-transgenic mice were injected intraperitoneally (i.p.) with vehicle (DMSO) in the same manner for the same period of time.
Specifically, the mice of Example 6 above were perfused with 4% paraformaldehyde (PFA) on 90 and 120 days of age, and the lumbar spinal cord and knee joints were separated. After fixation in 4% PFA for 24 hours, the knee joints were rinsed in running tap water for 24 hours and then incubated at 4° C. with continuous shaking in decalcifying solution (Calci-Clear, HS-104, National Diagnostics). The decalcification solution was replaced daily with fresh solution until the bones were easily penetrated with a needle, indicating completion of the decalcification process. Subsequently, the decalcified knee joints were rinsed in running tap water for 24 hours, and the spinal cord and knee joint samples were treated with 30% sucrose until they sank, followed by freeze protection, followed by successive cuts (14 μm). The lumbar spinal cord and knee joint tissue sections were washed three times with PBS and permeabilized with 0.5% Triton X-100 for 5 minutes. Subsequently, they were blocked with 5% bovine serum albumin (BSA) in 0.3% PBS-T at room temperature for 1 hour. The knee joint tissue sections were incubated with anti-TGF-β1 antibody (1:200; Santa Cruz, cat #sc130348), anti-α-SMA antibody (1:200; Abcam, cat #ab7817), anti-MyoD antibody (1:200; Santa Cruz, cat #sc377460), and anti-Collagen I antibody (1:200; Abcam, cat #ab21286) each, while the lumbar spinal cord sections were incubated with anti-GFAP antibody (1:200; Dako, cat #Z0334), anti-Iba1 antibody (1:200; Wako, cat #016)-20001), anti-TGF-β1 antibody (1:200; Santa Cruz, cat #sc130348), anti-TGF-β1 antibody (1:200; Abcam, cat #ab92486), and anti-IL-1β antibody (1:200; R&D Systems, cat #AF-401-NA) at 4° C. for an additional 24 hours. After washing the sections three times with PBS, they were incubated with Alexa Fluor secondary antibodies in a dark chamber at room temperature for 1 hour. […] Furthermore, analysis was performed using Leica Application Suite X software (Leica Microsystems).
Specifically, halofuginone was administered to G93A mutant SOD1 mice in the same manner as described in <Example 6>, and immunohistochemical analysis was performed in the same manner as described in <Example 8> to identify TGF-β1 and glial cells in the lumbar spinal cord. Considering that TGF-β derived from astrocytes has been reported to accelerate disease in ALS mice, each group's spinal cord was co-stained with TGF-β and GFAP during immunohistochemical analysis. In addition, Iba1 staining was performed to confirm the activity of microglia (FIGS. 9a and 9b).
In addition, to investigate the effect of glial changes in TGF-β and CNS on inflammation, IL-1β, a representative pro-inflammatory cytokine, was simultaneously stained with GFAP during immunohistochemical analysis (FIG. 9c).
In addition, halofuginone was administered to G93A mutant SOD1 mice in the same manner as described in Example 6. After sacrificing the mice at 90 days of age, Iba1 staining was performed to confirm the activation of microglia (FIG. 10a), and motor neurons were observed and counted using the same method as described above (FIG. 10b).

Test [2] has as its system G93A mutant SOD1 mouse-derived fibroblasts. The experiment in a line: Real-time qRT-PCR analysis of ALS animal model-derived fibroblasts. In kind it is cell-based. Conditions: low or high concentration halofuginone for 24 hours; elevation vs Non-TG fibroblasts (FIG. 5a). The source says:
Specifically, primary fibroblasts were isolated from skeletal muscle of 120-day-old non-transformed or G93A mutant SOD1 transgenic mice of Example 4. The excised tissue was placed on 100-mm culture dishes containing HBSS (Hanks' Balanced Salt Solution; Gibco, cat #14175095) and penicillin-streptomycin (Cat #15070-063, Thermo Fisher Scientific) without calcium and magnesium. Muscle tissue was cut on ice blocks. Then, the tissue was cut into 1 mm pieces and enzymatically reacted with 0.2% IV type collagenase (Sigma) at 37° C. for 1 hour. The enzymatic reaction was stopped by the addition of 10 ml of FBS (Gibco). […]
Specifically, total RNA was isolated from C2C12 cells in Example 1, fibroblasts in Example 5, and the lumbar spinal cord of mice in Example 6 using the FavorPrep™ Tri-RNA Reagent (Favorgen). […] The concentration of total RNA was measured at 260 nm absorbance using a spectrophotometer (NanoDrop Spectrophotometer ND-2000, Thermo Scientific). cDNA was synthesized from 1 μg of total RNA using the ReverTra Ace-α™ (Toyobo) according to the manufacturers protocol. Quantitative RT-PCR was performed using the SYBR Green ExcelTaq™ 2× Fast Q-PCR Master Mix (TQ1200, Smobio) on a thermocycler (CFX Connect Real-Time PCR Detection System, BIO-RAD) with the primers listed in Table 3 below. […]

With `O=C(C[C@H]1NCCC[C@@H]1O)Cn1cnc2cc(Br)c(Cl)cc2c1=O` (racemic) [halofuginone], the “microglia activity (Iba1) in lumbar spinal cord, compared with changes at 120 days” value in test [1] (90-day-old mice (FIG. 10a)) was “similar”. The “microglia (Iba1) in lumbar spinal cord” value in test [1] (120-day-old mice (FIG. 9a)) is reported as “continuously increased”. In test [1] (120-day-old mice (FIG. 9b)), the “increase in TGF-β1 in lumbar spinal cord” value is listed as “significantly reduced” and the “increase in astrocyte activity (GFAP) in lumbar spinal cord” value is “significantly reduced”. Also, in test [1] (120-day-old mice (FIG. 9c)), the “activated inflammation (IL-1β with GFAP activity) in lumbar spinal cord” value is listed as “suppressed”. Further, in test [2], the “elevated mRNA level of TGF-β, α-SMA and Col-I” value is reported as “attenuated”.
